Test results: article PMC6150365, “Simultaneous Determination of Seven Components in Rat Plasma by the UPLC-MS/MS Method and Application of Pharmacokinetic Studies to SimiaoYong’an Decoction” (Molecules : A Journal of Synthetic Chemistry and Natural …, 2017)

Assay: Pharmacokinetic study in rats after oral administration of SYD extract and its single and combined TCM extracts (UPLC-MS/MS of plasma)
Settings: male, Sprague-Dawley, rat, plasma, po, n = 6; for AUC(0-inf) / Cmax / MRT last / MRT inf / Tmax / AUC(0-t): rat plasma; for MRT last: MRT(0–t); for MRT inf: MRT(0–∞); for half-life: t1/2, rat plasma
[1] = 2.14 g·kg^−1 (extract), oral LJ + GU extract
[2] = 2.15 g/kg, oral LJ extract 2.15 g/kg
[3] = 3.29 g·kg^−1 (extract), oral LJ + AS extract
[4] = 3.29 g·kg^−1 extract, oral LJ + AS extract
[5] = 4.01 g·kg^−1 (extract), oral LJ + AS + GU extract
[6] = 4.5 g·kg^−1 (extract), oral LJ + SN extract
[7] = 4.5 g·kg^−1 extract, oral LJ + SN extract
[8] = 4.73 g/kg, oral LJ + SN + GU extract 4.73 g/kg
[9] = 5.43 g/kg, oral LJ + SN + AS extract 5.43 g/kg
[10] = 8.25 g/kg, oral SYD extract 8.25 g/kg

Compound: COC(=O)C1=CO[C@@H](O[C@@H]2O[C@H](CO)[C@@H](O)[C@H](O)[C@H]2O)[C@@H]2[C@@H](C)[C@@H](O)C[C@H]12 [Loganin, loganin]
- AUC(0-inf) [1]: 5510 ± 2000 ng·h/mL
- Cmax [1]: 690 ± 440 ng/mL
- MRT last [1]: 8.17 ± 0.62 h
- MRT inf [1]: 88.5 ± 42.1 h
- Tmax [1]: 1.25 ± 0.59 h
- half-life [1]: 484 ± 219 min
- AUC(0-t) (2.14 g·kg^−1 extract, oral LJ + GU extract): 1600 ± 70 ng·h/mL
- AUC(0-t) [2]: 1520 ± 110 ng·h/mL
- AUC(0-inf) [2]: 1670 ± 340 ng·h/mL
- Cmax [2]: 1140 ± 520 ng/mL
- MRT last [2]: 3.65 ± 1.03 h
- MRT inf [2]: 6.74 ± 6 h
- Tmax [2]: 1.25 ± 0.59 h
- half-life [2]: 403 ± 251 min
- Cmax [3]: 660 ± 350 ng/mL
- MRT last [3]: 7.93 ± 1.33 h
- MRT inf [3]: 80.9 ± 41.5 h
- Tmax [3]: 1.33 ± 0.52 h
- half-life [3]: 473 ± 145 min
- AUC(0-t) [4]: 1720 ± 310 ng·h/mL
- AUC(0-inf) [4]: 5400 ± 1940 ng·h/mL
- AUC(0-t) [5]: 1660 ± 120 ng·h/mL
- AUC(0-inf) [5]: 5350 ± 1940 ng·h/mL
- Cmax [5]: 540 ± 170 ng/mL
- MRT last [5]: 8.06 ± 0.78 h
- MRT inf [5]: 81.9 ± 41.3 h
- Tmax [5]: 1.5 ± 0.45 h
- half-life [5]: 475 ± 130 min
- MRT last [6]: 7.79 ± 1.38 h
- MRT inf [6]: 80 ± 40.2 h
- Tmax [6]: 1.54 ± 0.56 h
- half-life [6]: 563 ± 156 min
- AUC(0-t) [7]: 1790 ± 440 ng·h/mL
- AUC(0-inf) [7]: 5470 ± 2060 ng·h/mL
- Cmax [7]: 680 ± 100 ng/mL
- AUC(0-t) [8]: 1840 ± 450 ng·h/mL
- AUC(0-inf) [8]: 5510 ± 2020 ng·h/mL
- Cmax [8]: 720 ± 450 ng/mL
- MRT last [8]: 7.72 ± 1.48 h
- MRT inf [8]: 79.3 ± 40.8 h
- Tmax [8]: 1.5 ± 0.45 h
- half-life [8]: 410 ± 127 min
- AUC(0-t) [9]: 1160 ± 780 ng·h/mL
- AUC(0-inf) [9]: 1180 ± 770 ng·h/mL
- Cmax [9]: 660 ± 483 ng/mL
- MRT last [9]: 2.5 ± 0.7 h
- MRT inf [9]: 4.07 ± 3.93 h
- Tmax [9]: 1.5 ± 0.45 h
- half-life [9]: 375 ± 257 min
- AUC(0-t) [10]: 1980 ± 1380 ng·h/mL
- AUC(0-inf) [10]: 2170 ± 1400 ng·h/mL
- Cmax [10]: 770 ± 460 ng/mL
- MRT last [10]: 4.71 ± 1.34 h
- MRT inf [10]: 8.87 ± 8.1 h
- half-life [10]: 447 ± 203 min
